Results as given in US9340549B2, “Oxazolidinone compounds and derivatives thereof” (priority 2012, dated 2016).
Read-outs that look alike come from different tables or passages of the source. Values belong to the compound of their own block, whether it stands above or below them.

Experiments:
[1] = tested on: total β-catenin in SW480 colorectal cells; assay: cells; format: cell-based
Protocol: Total β-Catenin MSD 96-Well Plate Assay for SW480 Cells
SW480 colorectal cells were seeded at a density of 10,000/well in CellBIND 96-well plates (Corning catalog no. 3300) in 60 μL of normal growth medium (MEM alpha supplemented with 10% heat inactivated FBS, GlutaMAX, pyruvate, and 10 mM HEPES).
A 10-point, 3-fold dilution series for each TNKS inhibitor was constructed in a 96-well “stock” plate. […] The plates were incubated at 37° C. for 40 to 48 hours. The media was removed from the CellBIND plate via plate inversion and gentle shaking and the inverted plate was touched to a paper towel and immediately placed on ice. […] Plates containing cell lysates were sealed and shaken for one hour at 4° C. and then quickly frozen in a −80° C. for approximately 15 to 30 minutes followed by gradually thawing at 4° C. Finally, lysate containing plates were centrifuged @1000×g (2073 rpm) for 10 minutes at 4° C.
The sealed MSD plate was incubated overnight in a cold room with gentle shaking. The MSD plate was then blocked with 150 μL of Blocker “A” per well and incubated overnight at 4° C. with vigorous shaking. The blocked MSD plate was washed 4 times with 150 μL/well TBS-T wash buffer (150 mM NaCl, 50 mM Tris, pH 7.5, 0.02% Tween-20). Cell lysates (75 μL) were transferred to prepared MSD plates and incubated at 4° C. ON with gentle shaking. […] The detection antibody was incubated for 1 hour at room temperature with vigorous shaking after which plates were washed 3 times with 150 μL/well TBS-T wash buffer. Plates were processed for analysis by the addition of 150 μL/well MSD Read 4× Buffer T with surfactant (catalog no. R92TC-2; diluted 1:3 in deionized water) and were read on the SECTOR Imager 6000.

Axin2 in SW480 cells = assay: cells; format: cell-based; settings: Homo sapiens, SW480, 24 h, read-out: Axin2 384 IF EC50 IP
Protocol: Using a VPrep, 10 μL of compound/controls was transferred from the compound plate to 60 μL in the cell plate (final 0.5% DMSO, 70 μL). The mixture was incubated for 24 hours at 37° C. at 5% CO2.
The extra media was tapped out. 50 μL of 4% paraformaldehyde (Fisher, AA433689M), 0.1% Triton (Sigma, X100-100 ML) in PBS were added, and the mixture was incubated for 15 minutes at room temperature. […] The extra media was tapped out and to this was added 50 μL of buffer containing Axin2 Antibody (Sigma, SAB1100677-200 µL) at 1:10000 in PBS, 0.1% Tween-20, 1% Normal Goat Serum. The mixture was incubated for 2 hours at room temperature or overnight at 4° C. The cells were then washed twice with PBS, 0.1% Tween-20, and 1% Normal Goat Serum. […] The mixture was then incubated for 30 minutes at room temperature. The cells were then washed twice with PBS, 0.1% Tween-20, and 1% Normal Goat Serum. 50-100 μL PBS was added, and the mixture was covered with a plate seal (Fisher, NC9425162). An ArrayScan (a variation of the compartmental analysis protocol was optimized) was used to scan the plates, and data was analyzed using MEAN_RingSpotAvgIntenCh2). The Axin2 accumulation POC was calculated, and the EC50 was determined using Genedata Screener software to report Axin2 activity.

[2] = target: 6×HIS-tankyrase 1 (1091-1325) (Homo sapiens (Human), UniProt O95271); assay: biochemical; format: biochemical; settings: 400 nM NAD, 60 minutes at room temperature, read-out: TNKS1 IP IC50
Sequence of 6×HIS-tankyrase 1 (1091-1325) (O95271 1091-1325): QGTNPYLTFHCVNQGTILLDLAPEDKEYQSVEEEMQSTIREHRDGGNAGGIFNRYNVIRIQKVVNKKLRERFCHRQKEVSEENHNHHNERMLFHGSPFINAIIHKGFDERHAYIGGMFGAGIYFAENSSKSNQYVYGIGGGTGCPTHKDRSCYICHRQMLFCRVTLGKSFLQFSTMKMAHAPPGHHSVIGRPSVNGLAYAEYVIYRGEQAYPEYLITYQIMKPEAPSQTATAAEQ

[3] = Homo sapiens, SW480, read-out: SW480-Total β-Catenin IC50 IP
[4] = Homo sapiens, SW480 cells, 40 to 48 hours, top concentration 10 μM, read-out: SW480-Total β-Catenin IC50 IP

- IC50 [1, 3]: 6.55 µM
- EC50 (Axin2 in SW480 cells): 5.81 µM
Compound: CC1(C)OC(=O)N([C@H]2CC[C@@H](c3cnc(N)c(-c4ncccn4)c3)CC2)[C@H]1c1ccccc1 (racemic) [Example 72, 3-((1s,4s)-4-(6-amino-5-(pyrimidin-2-yl)pyridin-3-yl)cyclohexyl)-5,5-dimethyl-4-phenyloxazolidin-2-one]

- IC50 [1, 3]: 0.0952 µM
- EC50 (Axin2 in SW480 cells): 0.202 µM
Compound: CC1(C)OC(=O)N([C@H]2CC[C@H](c3cnc(N)c(-c4ncccn4)c3)CC2)[C@H]1c1ccccc1 (racemic) [Example 73, 3-((1r,4r)-4-(6-amino-5-(pyrimidin-2-yl)pyridin-3-yl)cyclohexyl)-5,5-dimethyl-4-phenyloxazolidin-2-one]

Compound: CC1(C)OC(=O)N(c2ccc(C(=O)Nc3cccc4cccnc34)cc2)[C@@H]1c1cccnc1 [Example 10, (R)-4-(5,5-dimethyl-2-oxo-4-(pyridin-3-yl)oxazolidin-3-yl)-N-(quinolin-8-yl)benzamide]
- IC50 ([2]; […] enzyme): 4.45 µM
- EC50 (Axin2 in SW480 cells; SW480 cells, 24 hours): > 25 µM

Compound: CC1(C)OC(=O)N([C@H]2CC[C@H](n3c(=O)[nH]c4cnccc43)CC2)[C@@H]1c1ccccc1 [Example 24, (R)-5,5-dimethyl-3-((1 r,4R)-4-(2-oxo-2,3-dihydro-1H-imidazo[4,5-c]pyridin-1-yl)cyclohexyl)-4-phenyloxazolidin-2-one]
- IC50 [1, 4]: 1.48 µM
- EC50 (Axin2 in SW480 cells; SW480 cells, 24 hours): 4.64 µM

Compound: CC1(C)OC(=O)N([C@H]2CC[C@H](n3c(=O)[nH]c4cc(Cl)ccc43)CC2)[C@H]1c1ccccc1 [Example 29, (S)-3-((1r,4S)-4-(5-chloro-2-oxo-2,3-dihydro-1H-benzo[d]imidazol-1-yl)cyclohexyl)-5,5-dimethyl-4-phenyloxazolidin-2-one]
- IC50 [1, 4]: 0.536 µM
- EC50 (Axin2 in SW480 cells; SW480 cells, 24 hours): 2.56 µM

Compound: CC1(C)OC(=O)N([C@H]2CC[C@H](n3c(=O)[nH]c4ncccc43)CC2)[C@H]1c1ccccc1 [Example 30, (S)-5,5-dimethyl-3-((1r,4S)-4-(2-oxo-2,3-dihydro-1H-imidazo[4,5-b]pyridin-1-yl)cyclohexyl)-4-phenyloxazolidin-2-one]
- IC50 [1, 4]: 1.12 µM
- EC50 (Axin2 in SW480 cells; SW480 cells, 24 hours): 1.98 µM

Compound: CC1(C)OC(=O)N([C@H]2CC[C@H](n3c(=O)[nH]c4ncccc43)CC2)[C@@H]1c1ccccc1 [Example 31, (R)-5,5-dimethyl-3-((1r,4R)-4-(2-oxo-2,3-dihydro-1H-imidazo[4,5-b]pyridin-1-yl)cyclohexyl)-4-phenyloxazolidin-2-one]
- IC50 [1, 4]: 2.66 µM
- EC50 (Axin2 in SW480 cells; SW480 cells, 24 hours): 17.5 µM

Compound: CC1(C)OC(=O)N([C@H]2CC[C@H](n3c(=O)[nH]c4cccnc43)CC2)C1c1ccccc1 (stereo partly shown) [Example 36, (R+S) 5,5-dimethyl-3-((1r,4r)-4-(2-oxo-1H-imidazo[4,5-b]pyridin-3(2H)-yl)cyclohexyl)-4-phenyloxazolidin-2-one]
- IC50 [1, 4]: 1.24 µM
- EC50 (Axin2 in SW480 cells; SW480 cells, 24 hours): 4.4 µM

Compound: O=C(Nc1cccc2cccnc12)c1ccc(N2C(=O)OC3(CCCCC3)C2c2ccccc2)cc1 (stereo not shown) [Example 46, (R+S) 4-(2-oxo-4-phenyl-1-oxa-3-azaspiro[4.5]decan-3-yl)-N-(quinolin-8-yl)benzamide]
- IC50 ([2]; […] enzyme): 5.17 µM
- EC50 (Axin2 in SW480 cells): > 25 µM

Compound: CC1(C)OC(=O)N(c2ccn3c(Nc4ccnc5cccnc45)nnc3c2)[C@H]1c1ccccc1 [Example 71, (S)-3-(3-((1,5-naphthyridin-4-yl)amino)-[1,2,4]triazolo[4,3-a]pyridin-7-yl)-5,5-dimethyl-4-phenyloxazolidin-2-one]
- IC50 ([2]; […] enzyme): 0.503 µM
- EC50 (Axin2 in SW480 cells; SW480 cells, 24 hours): > 25 µM

Compound: CC1(C)OC(=O)N(c2ccc(-c3cnc(N)c(-c4nccc(C(=N)N)n4)c3)cc2)[C@H]1c1ccccc1 [Example 99, (S)-2-(2-amino-5-(4-(5,5-dimethyl-2-oxo-4-phenyloxazolidin-3-yl)phenyl)pyridin-3-yl)pyrimidine-4-carboximidamide]
- IC50 ([2]; 0.25 nM enzyme): 0.0143 µM
- IC50 [1, 3]: 0.62 µM

Compound: CC1(C)OC(=O)N(c2ccc(-c3cnc(N)c(-c4nccc(C#N)n4)c3)cc2)[C@H]1c1ccccc1 [Example 102, (S)-2-(2-amino-5-(4-(5,5-dimethyl-2-oxo-4-phenyloxazolidin-3-yl)phenyl)pyridin-3-yl)pyrimidine-4-carbonitrile]
- IC50 ([2]; […] enzyme): 0.92 µM
- IC50 [1, 4]: > 10 µM

Compound: CC1(C)OC(=O)N([C@H]2CC[C@H](n3c(=O)[nH]c4c(F)cc(F)cc43)CC2)[C@H]1c1ccccc1 [Example 104, (S)-3-((1r,4S)-4-(4,6-difluoro-2-oxo-2,3-dihydro-1H-benzo[d]imidazol-1-yl)cyclohexyl)-5,5-dimethyl-4-phenyloxazolidin-2-one]
- IC50 ([2]; […] enzyme): 0.093 µM
- IC50 [1, 4]: > 10 µM

Compound: COc1cccc([C@@H]2N(c3ccc(C(=O)Nc4cccc5cccnc45)cc3)C(=O)OC2(C)C)c1 [Example 107, (S)-4-(4-(3-Methoxyphenyl)-5,5-dimethyl-2-oxooxazolidin-3-yl)-N-(quinolin-8-yl)benzamide]
- IC50 ([2]; […] enzyme): 0.0899 µM
- IC50 [1, 4]: 2.36 µM

Compound: CC1(C)OC(=O)N(c2ccc(C(=O)Nc3cccc4cccnc34)cc2)[C@@H]1c1cccc(F)c1 [Example 109, (R)-4-(4-(3-fluorophenyl)-5,5-dimethyl-2-oxooxazolidin-3-yl)-N-(quinolin-8-yl)benzamide]
- IC50 ([2]; […] enzyme): 5.53 µM
- EC50 (Axin2 in SW480 cells; SW480 cells, 24 hours): > 25 µM

Compound: COc1ccc([C@H]2N(c3ccc(C(=O)Nc4cccc5cccnc45)cc3)C(=O)OC2(C)C)cc1 [Example 112, (R)-4-(4-(4-methoxyphenyl)-5,5-dimethyl-2-oxooxazolidin-3-yl)-N-(quinolin-8-yl)benzamide]
- IC50 ([2]; […] enzyme): 2.75 µM
- EC50 (Axin2 in SW480 cells; SW480 cells, 24 hours): > 25 µM

Compound: CC1(C)OC(=O)N(c2ccc(-c3cc(-c4ccccn4)cnc3F)cc2)[C@H]1c1ccccc1 [Example 114, (S)-3-(4-(6′-fluoro-[2,3′-bipyridin]-5′-yl)phenyl)-5,5-dimethyl-4-phenyloxazolidin-2-one]
- IC50 ([2]; […] enzyme): 0.447 µM
- IC50 [1, 4]: 1.78 µM

Compound: CC1(C)OC(=O)N(c2ccc(C(=O)Nc3cccc4cccnc34)cc2)[C@@H]1c1ccccn1 [Example 122, (R)-4-(5,5-dimethyl-2-oxo-4-(pyridin-2-yl)oxazolidin-3-yl)-N-(quinolin-8-yl)benzamide]
- IC50 ([2]; […] enzyme): 1.53 µM
- IC50 [1, 4]: 8.56 µM

Compound: CC1(C)OC(=O)N(c2ccc(C(=O)Nc3cccc4cccnc34)cc2)[C@H]1c1ccccn1 [Example 123, (S)-4-(5,5-dimethyl-2-oxo-4-(pyridin-2-yl)oxazolidin-3-yl)-N-(quinolin-8-yl)benzamide]
- IC50 ([2]; […] enzyme): 0.228 µM
- IC50 [1, 4]: 3.44 µM

Compound: CC1(C)OC(=O)N(c2ccc(C(=O)Nc3cccc4cccnc34)cc2)[C@@H]1c1ccncc1 [Example 125, (R)-4-(5,5-dimethyl-2-oxo-4-(pyridin-4-yl)oxazolidin-3-yl)-N-(quinolin-8-yl)benzamide]
- IC50 ([2]; […] enzyme): 7.91 µM
- EC50 (Axin2 in SW480 cells; SW480 cells, 24 hours): > 25 µM

Compound: Cc1cc(N2C(=O)OC(C)(C)[C@@H]2c2ccccc2)ccc1C(=O)Nc1ccnc2cccnc12 [Example 128, (S)-4-(5,5-dimethyl-2-oxo-4-phenyloxazolidin-3-yl)-2-methyl-N-(1,5-naphthyridin-4-yl)benzamide]
- IC50 ([2]; […] enzyme): 0.693 µM
- IC50 [1, 4]: 4.35 µM

Compound: CC1(C)OC(=O)N(C2CCN(c3cnc4ccn(-c5ncccn5)c4c3)CC2)[C@H]1c1ccccc1 [Example 140, (S)-5,5-dimethyl-4-phenyl-3-(1-(1-(pyrimidin-2-yl)-1H-pyrrolo[3,2-b]pyridin-6-yl)piperidin-4-yl)oxazolidin-2-one]
- IC50 ([2]; […] enzyme): 0.0243 µM
- IC50 [1, 4]: 1.83 µM

Compound: (S)-3-(4-(6-amino-5-(5-chloropyridazin-3-yl)pyridin-3-yl)phenyl)-5,5-dimethyl-4-phenyloxazolidin-2-one [Example 100]
- IC50 ([2]; […] enzyme): 0.22 µM
- IC50 ([1]; SW480 cells, 40 to 48 hours, top concentration 10 μM, read-out: SW480-Total β-Catenin IC50 IP): 3.38 µM
